Measured values as given in ChEMBL document CHEMBL1149337, “Design and synthesis of potent and selective 1,3,4-trisubstituted-2-oxopiperazine based melanocortin-4 receptor agonists” (Bioorg Med Chem Lett, 2006).

Assays:
Melanocortin receptor 4 [1] = molecular target: T1, Melanocortin receptor 4 (Homo sapiens, UniProt P32245); test: Agonist activity at human MC4R; type: functional
[2] = molecular target: T2, Melanocyte-stimulating hormone receptor (Homo sapiens, UniProt Q01726); test: Agonist activity at human MC1R; type: functional
T2 sequence (Q01726 whole entry): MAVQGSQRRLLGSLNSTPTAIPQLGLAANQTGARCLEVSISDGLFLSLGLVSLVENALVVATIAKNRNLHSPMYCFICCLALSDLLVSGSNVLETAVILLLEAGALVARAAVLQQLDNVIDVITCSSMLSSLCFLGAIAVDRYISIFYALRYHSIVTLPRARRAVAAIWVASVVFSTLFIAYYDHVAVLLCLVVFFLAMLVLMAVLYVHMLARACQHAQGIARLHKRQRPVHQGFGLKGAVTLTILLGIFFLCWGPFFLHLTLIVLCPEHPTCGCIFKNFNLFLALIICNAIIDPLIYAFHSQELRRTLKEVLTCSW

Melanocortin receptor 4 [3] = molecular target: T1, Melanocortin receptor 4; test: Binding affinity to human MC4R
Melanocortin receptor 3 [4] = molecular target: T3, Melanocortin receptor 3 (Homo sapiens, UniProt P41968); test: Agonist activity at human MC3R; type: functional
T3 sequence (P41968 whole entry): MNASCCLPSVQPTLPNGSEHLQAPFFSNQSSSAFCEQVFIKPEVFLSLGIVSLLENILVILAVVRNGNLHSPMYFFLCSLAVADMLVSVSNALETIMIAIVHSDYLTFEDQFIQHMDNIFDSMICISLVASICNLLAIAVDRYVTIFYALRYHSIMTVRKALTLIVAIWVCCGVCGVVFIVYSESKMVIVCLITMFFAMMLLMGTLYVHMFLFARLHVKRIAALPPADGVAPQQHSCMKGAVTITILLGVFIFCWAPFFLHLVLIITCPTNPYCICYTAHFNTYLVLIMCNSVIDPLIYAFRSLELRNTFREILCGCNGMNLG

[5] = molecular target: T2, Melanocyte-stimulating hormone receptor; test: Binding affinity to human MC1R
Melanocortin receptor 3 [6] = molecular target: T3, Melanocortin receptor 3; test: Binding affinity to human MC3R
[7] = molecular target: Melanocortin receptor (M3 and M4) (Homo sapiens) (UniProt P32245+P41968); test: Selectivity for human MC4R over MC3R; type: protein assay
[8] = molecular target: Melanocortin receptor (M1 and M4) (Homo sapiens) (UniProt P32245+Q01726); test: Selectivity for human MC4R over MC1R; type: protein assay

T1 sequence (P32245 whole entry): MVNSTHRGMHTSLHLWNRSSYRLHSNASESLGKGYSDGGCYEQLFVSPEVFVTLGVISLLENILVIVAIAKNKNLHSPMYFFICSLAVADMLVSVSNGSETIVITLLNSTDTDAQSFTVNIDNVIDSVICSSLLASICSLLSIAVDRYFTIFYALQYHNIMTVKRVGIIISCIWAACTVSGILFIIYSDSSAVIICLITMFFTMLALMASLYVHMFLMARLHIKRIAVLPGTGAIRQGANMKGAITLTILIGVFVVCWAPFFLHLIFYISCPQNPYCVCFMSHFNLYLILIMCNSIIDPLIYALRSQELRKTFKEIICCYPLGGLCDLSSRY

Compound | EC50 (Melanocortin receptor 4 [1]) [nM] | EC50 [2] [nM] | Ki (Melanocortin receptor 4 [3]) [nM] | EC50 (Melanocortin receptor 3 [4]) [nM] | Ki [5] [nM] | Ki (Melanocortin receptor 3 [6]) [nM] | Selectivity ratio [7] | Selectivity ratio [8]
CNC(=O)[C@H](Cc1ccc2ccccc2c1)N1CCN(C(=O)[C@H](N)Cc2ccccc2)[C@@H](CCCN=C(N)N)C1=O | 1.7 | 526 | 5.7 | 41 | 659 | 239 | 42 | 116
CNC(=O)[C@H](Cc1ccc2ccccc2c1)NC(=O)[C@H](CCCN=C(N)N)NC(=O)[C@H](N)Cc1ccc(F)cc1 | 140 | 21700 | 225 | 20000 | 4060 | 1140 |  | 
CNC(=O)[C@H](Cc1ccc2ccccc2c1)N1CCN(C(=O)[C@@H](Cc2ccc(F)cc2)NC(=O)[C@H](Cc2ccc(O)cc2)NC(C)=O)[C@@H](CCCN=C(N)N)C1=O | 8.7 | 30 | 0.4 | 2 | 14 | 1.1 |  | 
CNC(=O)[C@H](Cc1ccc2ccccc2c1)N1CCN(C(=O)CCc2ccc(F)cc2)[C@@H](CCCN=C(N)N)C1=O | 9 | 1390 | 5.3 | 142 | 958 | 206 |  | 
CNC(=O)[C@H](Cc1ccc2ccccc2c1)N1CCN(C(=O)[C@@H](Cc2ccc(F)cc2)NC(=O)[C@H](Cc2cnc[nH]2)NC(C)=O)[C@@H](CCCN=C(N)N)C1=O | 2 | 1.7 | 5 | 6 | 2 | 35 |  | 

More lines, in order of falling EC50 (Melanocortin receptor 4 [1]), values ahead:

EC50 (Melanocortin receptor 4 [1]) [nM] | EC50 [2] [nM] | Ki (Melanocortin receptor 4 [3]) [nM] | EC50 (Melanocortin receptor 3 [4]) [nM] | Ki [5] [nM] | Ki (Melanocortin receptor 3 [6]) [nM] | Selectivity ratio [7] | Selectivity ratio [8] | Compound
18 |  | 365 |  | 21700 | 6110 |  |  | CNC(=O)[C@H](Cc1ccc2ccccc2c1)N1CCN(C(=O)[C@H](N)Cc2ccc(F)cc2)[C@@H](CCNC(N)=O)C1=O
12 |  | 261 |  | 2130 | 461 |  |  | CNC(=O)[C@H](Cc1ccc2ccccc2c1)N1CCN(C(=O)[C@H](N)Cc2ccc(F)cc2)[C@@H](CCCNC(N)=O)C1=O
1.6 | 104 | 6 | 163 | 313 | 352 |  |  | CNC(=O)[C@H](Cc1ccc2ccccc2c1)N1CCN(C(=O)[C@@H](Cc2ccc(F)cc2)NC(=O)C2Cc3ccccc3CN2)[C@@H](CCCN=C(N)N)C1=O (stereo partly specified)
1.6 | 317 | 7 | 37 | 366 | 75 |  |  | CNC(=O)[C@H](Cc1ccc2ccccc2c1)N1CCN(C(=O)[C@H](N)Cc2ccc(F)cc2)[C@@H](CCCN=C(N)N)C1=O
0.5 | 2.3 | 1.3 | 10 | 18 | 7 |  |  | CNC(=O)[C@H](Cc1ccc2ccccc2c1)N1CCN(C(=O)[C@@H](Cc2ccc(F)cc2)NC(C)=O)[C@@H](CCCN=C(N)N)C1=O
0.34 | 0.37 | 1.1 | 0.5 | 2 | 3.3 |  |  | CNC(=O)[C@H](Cc1ccc2ccccc2c1)N1CCN(C(=O)[C@@H](Cc2ccc(F)cc2)NC(=O)[C@H](CCC(N)=O)NC(C)=O)[C@@H](CCCN=C(N)N)C1=O
0.3 | 0.07 | 0.8 | 0.4 | 0.4 | 1 |  |  | CNC(=O)[C@H](Cc1ccc2ccccc2c1)N1CCN(C(=O)[C@@H](Cc2ccccc2)NC(=O)[C@H](Cc2c[nH]cn2)NC(C)=O)[C@@H](CCCN=C(N)N)C1=O
0.2 | 1.7 | 0.6 | 1 | 1 | 1 |  |  | CNC(=O)[C@H](Cc1ccc2ccccc2c1)N1CCN(C(=O)[C@@H](Cc2ccccc2)NC(=O)[C@H](Cc2ccc(O)cc2)NC(C)=O)[C@@H](CCCN=C(N)N)C1=O
